Measurements published in patent publication US11000033B2, “Ketone or oxime compound, and herbicide” (NISSAN CHEMICAL CORPORATION, priority 2014, dated 2021).

How the values were obtained:
Assay type in all cases: in vivo
Cyperus difformis = test: Test Example 3: herbicidal effect by foliage application, Wagner pot (symbol E); conditions: application herbicide amount 320 g/ha
In short: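 Weeds and rice were sown in alluvial soil under 0.1–0.5 cm of standing water and grown for 14 days in a 25–30 °C greenhouse. An emulsion of the compound, diluted in water to a set dose, was sprayed evenly onto the foliage. Effect was scored against fixed criteria 3 weeks after treatment.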

Lolium multiflorum Lam. = test: Test Example 4: herbicidal effect by soil treatment (symbol K); conditions: for K (Lolium multiflorum Lam.) herbicidal effect grade: application herbicide amount 320 g/ha; for K: Lolium multiflorum Lam., herbicidal effect grade: 320 g/ha
In short: (§1)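 Seeds were sown in sterilized diluvial soil, covered with about 1.5 cm of soil, and the soil surface was sprayed with a water-diluted emulsion of the compound at a predetermined rate. Plants grew in a greenhouse at 25° C. to 30° C.; effects were scored visually 3 weeks after application.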

Alopecurus myosuroides = test: Test Example 5: herbicidal effect by foliage application, plastic box (symbol J); conditions: 320 g/ha, 3 weeks after application
In short: (§2)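 Herbicide, formulated as an emulsion and diluted in water, is sprayed onto the aerial parts of 14-day seedlings. These were grown at 25° C. to 30° C. in sterilized diluvial soil; effects are graded after 3 weeks.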

Digitaria ciliaris [1] = test: Test Example 4: herbicidal effect by soil treatment (symbol F); conditions: for F (Digitaria ciliaris) herbicidal effect grade: application herbicide amount 320 g/ha; for F: Digitaria ciliaris, herbicidal effect grade: 320 g/ha
In short: as §1

wheat = test: Test Example 4: effect on crop by soil treatment (symbol e); conditions: for e (wheat) effect on crop grade: application herbicide amount 320 g/ha; for e: wheat, effect grade on crop: 320 g/ha
In short: (§3)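 Diluvial soil (sterilized) in boxes; seeds placed spot-wise alongside weed species; ~1.5 cm covering soil. Greenhouse, 25–30° C.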

beet [2] = test: Test Example 5: effect on crop by foliage application, plastic box (symbol f); conditions: 320 g/ha, 3 weeks after application
In short: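 Seeds were sown in spots in sterilized diluvial soil held in a plastic box 21 cm × 13 cm × 7 cm deep, covered with about 1.5 cm of soil, and grown in a greenhouse at 25° C. to 30° C.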

rice = test: Test Example 4: effect on crop by soil treatment (symbol b); conditions: for b (directly sowed rice plant) effect on crop grade: application herbicide amount 320 g/ha; for b: directly sowed rice plant, effect grade on crop: 320 g/ha
In short: as §3

[3] = test system: directly sowed rice plant; test: Test Example 3: effect on crop by foliage application, Wagner pot (symbol b); conditions: application herbicide amount 320 g/ha
In short: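 Greenhouse culture at 25–30 °C of seeded rice, Cyperus difformis, Leptochloa chinensis and Echinochloa crus-galli var. crus-galli, in alluvial soil held under 0.1–0.5 cm of water in a Wagner pot.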

Digitaria ciliaris [4] = test: Test Example 5: herbicidal effect by foliage application, plastic box (symbol F); conditions: 320 g/ha, 3 weeks after application
In short: as §2

[5] = test system: Echinochloa crus-galli var. crus-galli; test: Test Example 4: herbicidal effect by soil treatment (symbol H); conditions: for H (Echinochloa crus-galli var. crus-galli) herbicidal effect grade: application herbicide amount 320 g/ha; for H: Echinochloa crus-galli var. crus-galli, herbicidal effect grade: 320 g/ha
In short: as §1

Veronica persica = test: Test Example 5: herbicidal effect by foliage application, plastic box (symbol R); conditions: 320 g/ha, 3 weeks after application
In short: as §2

Apera spica-venti = test: Test Example 5: herbicidal effect by foliage application, plastic box (symbol L); conditions: 320 g/ha, 3 weeks after application
In short: as §2

beet [6] = test: Test Example 4: effect on crop by soil treatment (symbol f); conditions: for f (beet) effect on crop grade: application herbicide amount 320 g/ha; for f: beet, effect grade on crop: 320 g/ha
In short: as §3

Abutilon theophrasti = test: Test Example 4: herbicidal effect by soil treatment (symbol M); conditions: for M (Abutilon theophrasti) herbicidal effect grade: application herbicide amount 320 g/ha; for M: Abutilon theophrasti, herbicidal effect grade: 320 g/ha
In short: as §1

corn = test: Test Example 4: effect on crop by soil treatment (symbol c); conditions: for c (corn) effect on crop grade: application herbicide amount 320 g/ha; for c: corn, effect grade on crop: 320 g/ha
In short: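 Plants are raised in a greenhouse (25° C. to 30° C.) from spot-sown seed, which sits under about 1.5 cm of sterilized diluvial soil in a box shared with weed species.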

Galium spurium = test: Test Example 5: herbicidal effect by foliage application, plastic box (symbol Q); conditions: 320 g/ha, 3 weeks after application
In short: as §2

Setaria viridis = test: Test Example 5: herbicidal effect by foliage application, plastic box (symbol G); conditions: 320 g/ha, 3 weeks after application
In short: as §2

[7] = test system: Echinochloa oryzacola Vasing.; test: Test Example 2: herbicidal activity, application during weed generation in submerged conditions (symbol A); conditions: Table 23; application herbicide amount 320 g/ha; grade 0-5 by criteria of Test Example 1
In short: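 Alluvial soil in pots was flooded to a 4 cm water depth and sown with a mix of the three weed species, then grown in a greenhouse at 25° C. to 30° C. At the one- to two-leaf stage, an emulsifiable formulation diluted in water to a set dose was applied to the water surface. Effects were scored visually 3 weeks later.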

SMILES	herbicidal effect on E, grade 0-5 (Cyperus difformis)	K (Lolium multiflorum Lam.) herbicidal effect grade (Lolium multiflorum Lam.)	J: Alopecurus myosuroides, herbicidal effect grade (Alopecurus myosuroides)	F (Digitaria ciliaris) herbicidal effect grade (Digitaria ciliaris [1])	e (wheat) effect on crop grade (wheat)	f: beet, effect on crop grade (beet [2])	b (directly sowed rice plant) effect on crop grade (rice)	effect on crop b (directly sowed rice plant), grade 0-5 [3]	F: Digitaria ciliaris, herbicidal effect grade (Digitaria ciliaris [4])	H (Echinochloa crus-galli var. crus-galli) herbicidal effect grade [5]	R: Veronica persica, herbicidal effect grade (Veronica persica)	L: Apera spica-venti, herbicidal effect grade (Apera spica-venti)	f (beet) effect on crop grade (beet [6])	M (Abutilon theophrasti) herbicidal effect grade (Abutilon theophrasti)	c (corn) effect on crop grade (corn)	Q: Galium spurium, herbicidal effect grade (Galium spurium)	G: Setaria viridis, herbicidal effect grade (Setaria viridis)	Herbicidal effect grade, A: Echinochloa oryzacola Vasing. [7]	K: Lolium multiflorum Lam., herbicidal effect grade (Lolium multiflorum Lam.)	J: Alopecurus myosuroides, herbicidal effect (criteria 0-5) (Alopecurus myosuroides)	also measured
CC(CC1CC(O)=C(c2c(C)cc(C)cc2C)C1=O)=NOCC(=O)N1CCOCC1 (stereo not drawn) [1-025]	5 (Herbicidal ratio of 90% or more (almost completely withered))	5 (Herbicidal ratio of 90% or more (almost completely withered))	5 (Herbicidal ratio of 90% or more (almost completely withered))	5 (Herbicidal ratio of 90% or more (almost completely withered))	0 (Herbicidal ratio of 5% or lower (almost no effect))	0 (Herbicidal ratio of 5% or lower (almost no effect))	5 (Herbicidal ratio of 90% or more (almost completely withered))	5 (Herbicidal ratio of 90% or more (almost completely withered))	5 (Herbicidal ratio of 90% or more (almost completely withered))	5 (Herbicidal ratio of 90% or more (almost completely withered))	3 (Herbicidal ratio of 40% or higher and lower than 70%)	5 (Herbicidal ratio of 90% or more (almost completely withered))	0 (Herbicidal ratio of 5% or lower (almost no effect))	0 (Herbicidal ratio of 5% or lower (almost no effect))	0 (Herbicidal ratio of 5% or lower (almost no effect))	4 (Herbicidal ratio of 70% or higher and lower than 90%)	4 (Herbicidal ratio of 70% or higher and lower than 90%)	1 (Herbicidal ratio of 5% or higher and lower than 20%)	–	–	–
COCC(=O)OC1=C(c2c(C)cc(C)cc2C)C(=O)C(CC(C)=NOC)C1 (stereo not drawn) [1-093]	5 (Herbicidal ratio of 90% or more (almost completely withered))	–	–	–	–	–	–	5 (Herbicidal ratio of 90% or more (almost completely withered))	–	–	–	–	–	–	–	–	–	5 (Herbicidal ratio of 90% or more (almost completely withered))	5 (Herbicidal ratio of 90% or more (almost completely withered))	5 (Herbicidal ratio of 90% or more (almost completely withered))	F: Digitaria ciliaris, herbicidal effect grade (Digitaria ciliaris [1]): 5 (Herbicidal ratio of 90% or more (almost completely withered)); e: wheat, effect grade on crop (wheat): 4 (Herbicidal ratio of 70% or higher and lower than 90%); f: beet, effect on crop (criteria 0-5) (beet [2]): 0 (Herbicidal ratio of 5% or lower (almost no effect)); b: directly sowed rice plant, effect grade on crop (rice): 5 (Herbicidal ratio of 90% or more (almost completely withered)); F: Digitaria ciliaris, herbicidal effect (criteria 0-5) (Digitaria ciliaris [4]): 5 (Herbicidal ratio of 90% or more (almost completely withered)); H: Echinochloa crus-galli var. crus-galli, herbicidal effect grade [5]: 5 (Herbicidal ratio of 90% or more (almost completely withered)); R: Veronica persica, herbicidal effect (criteria 0-5) (Veronica persica): 3 (Herbicidal ratio of 40% or higher and lower than 70%); L: Apera spica-venti, herbicidal effect (criteria 0-5) (Apera spica-venti): 5 (Herbicidal ratio of 90% or more (almost completely withered)); f: beet, effect grade on crop (beet [6]): 0 (Herbicidal ratio of 5% or lower (almost no effect)); M: Abutilon theophrasti, herbicidal effect grade (Abutilon theophrasti): 4 (Herbicidal ratio of 70% or higher and lower than 90%); c: corn, effect grade on crop (corn): 5 (Herbicidal ratio of 90% or more (almost completely withered)); Q: Galium spurium, herbicidal effect (criteria 0-5) (Galium spurium): 0 (Herbicidal ratio of 5% or lower (almost no effect)); G: Setaria viridis, herbicidal effect (criteria 0-5) (Setaria viridis): 5 (Herbicidal ratio of 90% or more (almost completely withered))
CON=C(C)CC1CC(OC(=O)COc2ccc(I)cc2)=C(c2c(C)cc(C)cc2C)C1=O (stereo not drawn) [1-082]	5 (Herbicidal ratio of 90% or more (almost completely withered))	–	–	–	–	–	–	5 (Herbicidal ratio of 90% or more (almost completely withered))	–	–	–	–	–	–	–	–	–	5 (Herbicidal ratio of 90% or more (almost completely withered))	5 (Herbicidal ratio of 90% or more (almost completely withered))	5 (Herbicidal ratio of 90% or more (almost completely withered))	F: Digitaria ciliaris, herbicidal effect grade (Digitaria ciliaris [1]): 5 (Herbicidal ratio of 90% or more (almost completely withered)); e: wheat, effect grade on crop (wheat): 3 (Herbicidal ratio of 40% or higher and lower than 70%); f: beet, effect on crop (criteria 0-5) (beet [2]): 0 (Herbicidal ratio of 5% or lower (almost no effect)); b: directly sowed rice plant, effect grade on crop (rice): 5 (Herbicidal ratio of 90% or more (almost completely withered)); F: Digitaria ciliaris, herbicidal effect (criteria 0-5) (Digitaria ciliaris [4]): 5 (Herbicidal ratio of 90% or more (almost completely withered)); H: Echinochloa crus-galli var. crus-galli, herbicidal effect grade [5]: 5 (Herbicidal ratio of 90% or more (almost completely withered)); R: Veronica persica, herbicidal effect (criteria 0-5) (Veronica persica): 0 (Herbicidal ratio of 5% or lower (almost no effect)); L: Apera spica-venti, herbicidal effect (criteria 0-5) (Apera spica-venti): 5 (Herbicidal ratio of 90% or more (almost completely withered)); f: beet, effect grade on crop (beet [6]): 0 (Herbicidal ratio of 5% or lower (almost no effect)); M: Abutilon theophrasti, herbicidal effect grade (Abutilon theophrasti): 5 (Herbicidal ratio of 90% or more (almost completely withered)); c: corn, effect grade on crop (corn): 4 (Herbicidal ratio of 70% or higher and lower than 90%); Q: Galium spurium, herbicidal effect (criteria 0-5) (Galium spurium): 0 (Herbicidal ratio of 5% or lower (almost no effect)); G: Setaria viridis, herbicidal effect (criteria 0-5) (Setaria viridis): 5 (Herbicidal ratio of 90% or more (almost completely withered))
CON=C(C)CC1CC(OC(=O)C(C)Cl)=C(c2c(C)cc(C)cc2C)C1=O (stereo not drawn) [1-042]	5 (Herbicidal ratio of 90% or more (almost completely withered))	5 (Herbicidal ratio of 90% or more (almost completely withered))	5 (Herbicidal ratio of 90% or more (almost completely withered))	5 (Herbicidal ratio of 90% or more (almost completely withered))	1 (Herbicidal ratio of 5% or higher and lower than 20%)	1 (Herbicidal ratio of 5% or higher and lower than 20%)	5 (Herbicidal ratio of 90% or more (almost completely withered))	5 (Herbicidal ratio of 90% or more (almost completely withered))	5 (Herbicidal ratio of 90% or more (almost completely withered))	5 (Herbicidal ratio of 90% or more (almost completely withered))	1 (Herbicidal ratio of 5% or higher and lower than 20%)	5 (Herbicidal ratio of 90% or more (almost completely withered))	0 (Herbicidal ratio of 5% or lower (almost no effect))	5 (Herbicidal ratio of 90% or more (almost completely withered))	3 (Herbicidal ratio of 40% or higher and lower than 70%)	0 (Herbicidal ratio of 5% or lower (almost no effect))	5 (Herbicidal ratio of 90% or more (almost completely withered))	5 (Herbicidal ratio of 90% or more (almost completely withered))	–	–	–
